This note sets out measurements from patent US10624871B2, “Bismuth(III) compounds and methods thereof” (priority 2016, dated 2020).

The structures appear in SMILES notation.

For experiment [1], the system named is E. coli (NDM-1−). As to the kind of experiment: Checkerboard MIC analysis, NDM-1-null strain. In kind it is cell-based. To be noted: NDM-1-null E. coli strain. How it is done:
FIGS. 10 (a)-(b) show a heat map of checkerboard MIC analysis over MER and CBS against clinical isolates of (a) E. coli (NDM-1^+) and (b) E. coli (NDM-1^−).
MIC values of either antibiotics or Bi(III) compounds were determined firstly by standard broth micro-dilution method (Clinical and Laboratory Standards Institute (CLSI) M100-S20, 2010). Briefly, bacteria cells were cultured in LB broth overnight at 37° C. at 250 rpm and the optical density was measured at 600 nm (OD600) using a microtiter plate reader. The bacteria density was adjusted to about 1×10^6 CFU mL^−1 and checked by CFU counting on agar plates afterwards. Tested compounds were added triplicately into individual wells of flat-bottomed 96-well plates and performed two-fold serial dilution, followed by addition of prepared bacterial inoculum. […] The MIC was determined as the lowest concentration of compounds that could inhibit the growth of microorganism by both visual reading and OD600 measurement. […]
For the test of drug combination, antibiotics and Bi(III) compounds were co-administrated at concentrations up to 8 times higher than the MIC of the compounds tested alone. […] The FICIs were determined based on the following equation: FICI=FICA+FICB=CA/MICA+CB/MICB where MICA and MICB are the MIC values of compound A and B when functioning alone, and CA and CB are the concentrations of compound A and B at the effective combinations. […]

Experiment [2] concerns E. coli (NDM-1+). As to the kind of experiment: In vitro cell infection assay in MDCK cells. In kind it is cell-based. The protocol:
To further evaluate the antimicrobial efficacy of CBS in combination with MER, we exploited the in vitro bacterial infection model in mammalian cell. Typically, MDCK cells were cultured in minimum essential Media (MEM) supplemented with fetal bovine serum (FBS, 10%) and grown at 37° C. in the 5% CO2 humidified atmosphere for three days. The MDCK cells were then washed three times with phosphate buffer saline (PBS) solution, liberated with trypsin-EDTA (0.25%) and re-suspended by culture medium. About 500 μL of re-suspended cells were seeded in 24-well plates and incubated as described above for 48 hrs to ensure confluency, resulting in about 1.0×10^5 cells per well by typan blue assay. The freshly grown logarithmic E. coli (NDM-1^+) bacterial cells were washed with PBS for three times and re-suspended in MEM/10% FBS. The density was adjusted to 2×10^7 CFU mL^−1. Then 500 μL of bacterial suspension was added to each well and substituted for the previous MDCK culture medium. […]
For those cell-invaded bacteria experiments, the infected cells were incubated in culture medium supplemented with 100 μg mL^−1 ciprofloxacin for 1 h to remove extracellular bacteria. […] The assay was performed in triplicate, repeated three times and the results were expressed as average ±SD.

In experiment [3] the test system is Rosetta (DE3) (NDM-1+) bacterial cells. As to the kind of experiment: Growth with other β-lactam antibiotics in presence of Bi(III) compounds. It is filed as cell-based, E. coli. To be noted: CEF 32 μg mL^−1; CBS 32 or Bi-NAC 16 μg mL^−1. The protocol:
Note that evident restoration of activities of antibiotics was observed. The concentrations used in this test represent are: CBS […], Bi-NAC 16 μg mL^−1, all the antibiotics 32 μg mL^−1. Abbreviation: AMOX: amoxicillin; AMP: ampicillin; NAF: nafcillin; CEF: cefdinir.

Experiment [4] deals with E. coli (NDM-1+). As to the kind of experiment: Murine peritonitis infection model. It is filed as in vivo, BALB/c mice. To be noted: MER (5 mg kg^−1) co-administered with CBS (20 mg kg^−1), i.p., day 4 post infection. The protocol:
FIG. 15 is a survival curve showing efficacies in a murine peritonitis infection model. BALB/c mice were infected by a lethal dose of E. coli clinical isolate (NDM-1) via i.p. injection and treated with one dose and 4 h post infection, followed by twice-daily treatment via i.p. injection. Five groups of mice were treated with MER (5 mg kg^−1), CBS (20 mg kg^−1), the combination of MER (5 mg kg^−1) and CBS (20 mg kg^−1), CBS (20 mg kg^−1, in the absence of bacteria) and PBS, respectively. P<0.001, Mantel-Cox test.
Briefly, an overnight culture of E. coli (NDM-1^+) was performed 1:250 dilution in 50 mL LB broth and re-grew to about OD of 0.3 in a 250-mL flask after 2.5 hrs shaking at 37° C., 250 rpm. The resulting bacterial pellets were collected and washed by PBS three times for further use. For bacterial infection, mice (female BALB/c strain, 6-8 weeks of age, 18-22 g of weight) were induced intraperitoneally (i.p.) with a dose of 10^5 CFU bacteria in a 400 μL aliquot of PBS supplemented with 2% mucin. 4 groups of mice were i.p. administered 4 hrs post-infection with a 100 μL aliquot of PBS, MER, CBS and a combination of MER and CBS, respectively. Body weights and mice survival were monitored for endpoint until day 4 post infection.

The test system of experiment [5] is E. coli (VIM-2+). The experiment in a line: Microdilution MIC and MBC assay, FICI. To be noted: Bi(III) compound at 32 μg mL−1, E. coli (VIM-2+). In kind it is cell-based.

For `O=C([O-])CC([O-])(CC(=O)[O-])C(=O)[O-].O=C([O-])CC([O-])(CC(=O)[O-])C(=O)[O-].[Bi+3].[Bi+3].[K+]` [Complex 10, colloidal bismuth subcitrate], in experiment [1], the “synergy of MER and CBS in checkerboard MIC” value is given as “no inhibition was observed”. In addition, the “lowering of intracellular bacterial density compared with mere MER, cell-invaded model” value in experiment [2] (MER (2×MIC) and CBS) was 9.22 fold. The “bacterial load, cell-associated model” value in experiment [2] (MER in the presence of CBS (32 μg mL^−1)) was ≤ 10^4 CFU. Further, in experiment [3], the “reduction of growth rate of bacterial cells, with CEF” value turned out to be 76%. Further, in experiment [4], the “survival rate at the endpoint of experiment” value is given as 50%. In experiment [5], the “MBC of MER with Bi(III) compound” value stood at 1 µg/mL and the “MIC of MER with Bi(III) compound” value was 0.5 µg/mL.
